Compound `CCOP(=S)(OCC)SCn1c(=O)oc2cc(Cl)ccc21` came in with a log10 Koc (L/kg) of 2.63 and a melting point of 47.8 °C.
`COCCOC(=O)c1ccccc1C(=O)OCCOC` registered a boiling point of 340 °C and a melting point of -45 °C.
In the case of `FC(F)OC(F)C(F)(F)F` (stereo not given), the boiling point worked out at 23.5 °C and the log10 vapour pressure (mmHg) was 2.82.
In the case of `COc1cc(C)nc(-n2nc(C)cc2OC)n1`, the melting point was 91 °C.
In turn, `Cc1cccc2c(C)cccc12` returned a boiling point of 265 °C, a log10 Henry constant (atm·m³/mol) of -3.46, a log10 vapour pressure (mmHg) of -2.3 and a melting point of 82 °C.
In the case of `OCCO`, the boiling point amounted to 197 °C, the log10 Henry constant (atm·m³/mol) is -7.22, the log10 vapour pressure (mmHg) was -1.04 and the ready biodegradability entry is recorded as “readily biodegradable”.
Compound `OCC1(CO)CC=CCC1` gave a melting point of 88.5 °C.
On the same count and under the same terms, next, `CCCC(=O)O[C@]1(C(=O)CCl)[C@@H](C)C[C@H]2[C@@H]3CCC4=CC(=O)C=C[C@]4(C)[C@@]3(F)C(=O)C[C@@]21C`: 95 °C.
As to `CO[C@H](C(=O)c1ccccc1)c1ccccc1`, the melting point is 49.5 °C.
In turn, `CC(C)OB(OC(C)C)OC(C)C` registered a boiling point of 140 °C and a log10 vapour pressure (mmHg) of 0.875.
As for `CCCCCCCCCc1cccc2ccccc12`, the boiling point was 366 °C and the melting point came out at 8 °C.
As for `C=C(C)C(=O)OCCCCCCCCCCCCCCCCCC`, the ready biodegradability entry was “readily biodegradable”.
In turn, `O=[N+]([O-])Nc1ccccc1` yielded a melting point of 47.3 °C.
`CCC(C)CC(O)CC` (stereo not given): the boiling point stood at 172 °C and the melting point is -91.2 °C.
In the case of `Cc1ccccc1S`, the boiling point came to 195 °C, the log10 vapour pressure (mmHg) was -0.193 and the melting point came out at 15 °C.
Take `O=C(C1CCCCC1)N1CC(=O)N2CCc3ccccc3C2C1` (stereo not given): the melting point was determined as 136 °C.
In the case of `OCCCCCCO`, the boiling point came to 250 °C, the log10 vapour pressure (mmHg) is -3.3 and the melting point came to 45 °C.
Take `CCCCCCCCCCCCCCCCCCCCCCCCCCCCCCCCCCC`: the boiling point was 490 °C, the log10 vapour pressure (mmHg) is -11.3, the melting point amounted to 75 °C and the ready biodegradability result was “readily biodegradable”.
As to `NCCCc1ccccc1`, the boiling point worked out at 221 °C.
As to `O=Cc1ccc([N+](=O)[O-])o1`, the boiling point was 228 °C, the melting point amounted to 35.5 °C and the ready biodegradability result is on record as “readily biodegradable”.
Turning to `C=C(C)CCO`, the boiling point came to 132 °C and the log10 vapour pressure (mmHg) amounted to 0.551.
For `OB(O)c1ccccc1`, the melting point was 219 °C.
Turning to `COCC(O)CO` (stereo not given), the boiling point came out at 220 °C.
In the case of `N=C(Nc1ccccc1)Nc1ccccc1`, the melting point came out at 150 °C and the ready biodegradability entry was “not readily biodegradable”.
Consider `O=C(O)[C@@H]1CCCO1`, for which the melting point was found to be 21 °C.
As to `CC(C)=C(C)C(C)C`, the boiling point was 116 °C, the log10 vapour pressure (mmHg) amounted to 1.35 and the melting point was -113 °C.
On to `CC(=O)Oc1ccccc1C`, for which the boiling point is 208 °C.
Compound `C=CC=C` gave a boiling point of -4.4 °C, a log10 vapour pressure (mmHg) of 3.32 and a melting point of -109 °C.
Regarding `COC(=O)c1ccoc1`, the boiling point was 160 °C.
The compound `NC(=O)N(CCO)/N=C/c1ccc([N+](=O)[O-])o1` gave a melting point of 214 °C.
In the case of `CCCCCCCCCCCC(=O)Oc1c(Cl)c(Cl)c(Cl)c(Cl)c1Cl`, the ready biodegradability entry is “not readily biodegradable”.
As to `NCCNCc1ccccc1`, the ready biodegradability entry was “not readily biodegradable”.
As to `CCCCCC(=O)OC`, the boiling point worked out at 150 °C, the log10 Henry constant (atm·m³/mol) was -3.44, the log10 vapour pressure (mmHg) amounted to 0.57 and the melting point is -71 °C.
On to `CCOc1ccc(C(N)=O)cc1`, for which the melting point is 209 °C.
Still for that read-out and setting: next, `C=C(CC)C(=O)c1ccc(OCC(=O)O)c(Cl)c1Cl`: 122 °C.
As to `CCCCCCCCCCCCNC(=N)N`, the melting point was 136 °C.
`Clc1cccc2ccccc12` came in with a boiling point of 259 °C, a log10 Henry constant (atm·m³/mol) of -3.45, a log10 Koa of 5.8 and a log10 vapour pressure (mmHg) of -1.54. The melting point was -2.5 °C and the ready biodegradability entry is reported as “not readily biodegradable”.
With `O=S(=O)(Cl)c1ccc(I)cc1`, the melting point stood at 85 °C.
In the case of `Nc1ccc(Nc2ccccc2)cc1`, the boiling point was determined as 354 °C, the log10 vapour pressure (mmHg) is -4.92 and the melting point worked out at 66 °C.
`O=C1CCCCCCCCCCC(=O)OCCO1` displayed a melting point of 18 °C.
Regarding `COC(=O)NC(=S)Nc1ccccc1NC(=S)NC(=O)OC`, the log10 Koc (L/kg) was 3.25 and the log10 vapour pressure (mmHg) was -7.15.
On to `CC(C)N(C(=O)SCC(Cl)=C(Cl)Cl)C(C)C`, for which the log10 Koc (L/kg) stood at 3.35, the log10 vapour pressure (mmHg) was -3.92 and the melting point came to 29 °C.
Compound `Cc1ccccc1OC(=O)c1ccccc1` yielded a boiling point of 309 °C.
The compound `c1ccc2c(c1)CCc1ccccc1N2C1CN2CCC1CC2` (stereo not given) returned a melting point of 150 °C.
Still for that read-out and setting: next, `Cc1ccccc1C=Cc1ccccc1C`: 83 °C; `CCCCCCCCCCCCCCCCCC(=O)OCCO`: 60.5 °C.
For `CCC/C=C/CCC`, the boiling point is 126 °C, the log10 vapour pressure (mmHg) is 1.25 and the melting point is -104 °C.
For the compound `CC(=C(CCO)SSC(CCO)=C(C)N(C=O)Cc1cnc(C)nc1N)N(C=O)Cc1cnc(C)nc1N`, the melting point is 177 °C.

As a reminder, the melting point is the temperature, or range, at which the solid turns liquid. A word on the boiling point: it is the temperature of boiling at a given pressure.
